ChEMBL document CHEMBL1126256, “Structural modifications of camptothecin and effects on topoisomerase I inhibition” (J Med Chem, 1992)
Calls of active or inactive are those of the source. The rule behind the calls is not given here.

Experiments:
[1] = target: T1, DNA topoisomerase 1 (Homo sapiens) (UniProt P11387); test: Relative activity against DNA topoisomerase I was measured at concentration of 12 uM to that of camptothecin
T1 sequence (whole entry): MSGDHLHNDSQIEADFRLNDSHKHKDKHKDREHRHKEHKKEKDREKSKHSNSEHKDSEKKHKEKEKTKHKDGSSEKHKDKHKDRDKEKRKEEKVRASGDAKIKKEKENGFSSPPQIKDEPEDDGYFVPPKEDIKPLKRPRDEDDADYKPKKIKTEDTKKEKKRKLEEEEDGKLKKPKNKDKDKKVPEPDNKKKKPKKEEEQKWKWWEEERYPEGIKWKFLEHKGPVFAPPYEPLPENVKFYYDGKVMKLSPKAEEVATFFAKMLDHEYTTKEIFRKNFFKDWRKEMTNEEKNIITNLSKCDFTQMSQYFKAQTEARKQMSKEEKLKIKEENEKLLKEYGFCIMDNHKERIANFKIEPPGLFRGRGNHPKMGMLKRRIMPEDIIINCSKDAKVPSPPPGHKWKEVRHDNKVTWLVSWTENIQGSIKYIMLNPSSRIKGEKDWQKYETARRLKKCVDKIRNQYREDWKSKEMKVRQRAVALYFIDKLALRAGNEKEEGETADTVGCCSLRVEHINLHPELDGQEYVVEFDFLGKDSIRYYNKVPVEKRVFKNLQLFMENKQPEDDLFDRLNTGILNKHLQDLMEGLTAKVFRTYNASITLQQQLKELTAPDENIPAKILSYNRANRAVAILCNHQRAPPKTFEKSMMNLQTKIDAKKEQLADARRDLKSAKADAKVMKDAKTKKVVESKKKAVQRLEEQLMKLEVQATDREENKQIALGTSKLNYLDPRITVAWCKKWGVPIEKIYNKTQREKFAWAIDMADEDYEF

[2] = target: T1, DNA topoisomerase 1 (Homo sapiens); test: Relative activity against Topoisomerase I was measured at concentration of 360 uM to that of camptothecin; Active, 35 fold less than camptothecin
[3] = target: T1, DNA topoisomerase 1 (Homo sapiens); test: Relative activity against DNA topoisomerase I was measured at concentration of 200 uM to that of camptothecin; Inactive
[4] = target: T1, DNA topoisomerase 1 (Homo sapiens); test: Relative activity against DNA topoisomerase I was measured at concentration of 833 uM to that of camptothecin; Inactive
[5] = target: T1, DNA topoisomerase 1 (Homo sapiens); test: Relative activity against DNA topoisomerase I was measured at concentration of 554 uM to that of camptothecin; Active, 50 fold less than camptothecin
[6] = target: T1, DNA topoisomerase 1 (Homo sapiens); test: Relative activity against DNA topoisomerase I was measured at concentration of 277 uM to that of camptothecin; inactive
[7] = target: T1, DNA topoisomerase 1 (Homo sapiens); test: Relative activity against Topoisomerase I was measured at concentration of 25 uM to that of camptothecin; Inactive
[8] = target: T1, DNA topoisomerase 1 (Homo sapiens); test: Relative activity against DNA topoisomerase I was measured at concentration of 83 uM to that of camptothecin; Active, 10 fold less than camptothecin
[9] = target: T1, DNA topoisomerase 1 (Homo sapiens); test: Relative activity against DNA topoisomerase I was measured at concentration of 166 uM to that of camptothecin; Inactive
[10] = target: T1, DNA topoisomerase 1 (Homo sapiens); test: Relative activity against DNA topoisomerase I was measured at concentration of 625 uM to that of camptothecin; Inactive

## CCC1C(=O)OCc2c1c(C(=O)OC)c1n(c2=O)Cc2ccccc2-1 (configuration not stated)
[1]
  Relative activity: inactive
[2]
  Relative activity: Active

## CCC(C(=O)OC)c1cc2n(c(=O)c1)Cc1cc3ccccc3nc1-2 (configuration not stated)
[3]
  Relative activity: inactive

## CCC(C(=O)OC)c1cc(=O)n2c(c1C(=O)OC)C1Cc3ccccc3CC1C2 (configuration not stated)
[4]
  Relative activity: inactive

## COC(=O)Cc1cc2n(c(=O)c1)Cc1cc3ccccc3nc1-2
[5]
  Relative activity: Active
[6]
  Relative activity: inactive

## CCC1C(=O)OCc2c1cc1n(c2=O)Cc2ccccc2-1 (configuration not stated)
[7]
  Relative activity: inactive
[8]
  Relative activity: Active

## COC(=O)Cc1cc(=O)n2c(c1C(=O)OC)-c1nc3ccccc3cc1C2
[9]
  Relative activity: inactive

## CCC(C(=O)OC)c1cc(=O)n2c(c1C(=O)OC)-c1nc3ccccc3cc1C2 (configuration not stated)
[10]
  Relative activity: inactive

## CCC1C(=O)OCc2c1c(C(=O)OC)c1n(c2=O)CC2Cc3ccccc3CC12 (configuration not stated)
[4]
  Relative activity: inactive

## COC(=O)Cc1cc(=O)n2c(c1C(=O)OC)C1Cc3ccccc3CC1C2 (configuration not stated)
[4]
  Relative activity: inactive
